Data as given in patent US8685976B2, “Cell adhesion promoting agent and method of promoting cell adhesion” (Kyoto University, priority 2008, dated 2014).
“Also recorded” adds a separate entry of the source. Read-outs that look alike come from different tables or passages of the source. Values belong to the compound of their own block, whether it stands above or below them.

Key:
HepG2 cells [1] = experiment: Confocal imaging of fluorescent compounds; format: cell-based; settings: for localization of the fluorescent compound: HepG2, 6 μM, 3 hours
Experimental: HepG2 cells were incubated with Compound 4 (6 μM, A and C) or Compound 5 (6 μM, B and D) for 3 hours after seeding.
(§1) In (A) and (B), Jurkat cells (A) or HepG2 cells (B) were pretreated with 0.02 units/mL of heparinase, heparitinase I, and heparitinase II, or 0.1 units/mL of protease-free chondroitinase ABC in a serum-free culture medium for 1 hour at 37° C. before evaluating cell adhesion. The treated cells were seeded onto adhesamine-added or fibronectin-coated plastic wells. The attached cells were counted at 5 hours after seeding. The concentrations of adhesamine and fibronectin were 6 μM and 5 μg/mL, respectively. Each point represents the means±SD. (C) and (D) show localization of Compound 4 in HepG2 cells treated with heparinase/heparitinase I/heparitinase II (C) or chondroitinase ABC (D).
HepG2 cell suspension (100 μL) were seeded on a 96-well plate (Greiner bio-one) at a density of 2×10^5 cells/mL, and the cells were incubated with Compounds 4 and 5 for 3 hours at 37° C., at a concentration of 6 μM. After incubation, medium exchange was performed, and the cells were then subjected to fluorescent microscopic observation. Microscopic images of the cells were captured by a Yokogawa CSU22 confocal fluorescence microscope with 405 nm laser excitation.

Jurkat cells [2] = experiment: Cell adhesion assay by addition, Jurkat cells; format: cell-based, human; settings: Jurkat cells; for cell-adhesion promoting activity of adhesamine derivatives: FIG. 6
Experimental: 1 μL each of an aqueous solution of adhesamine (1), Type I collagen, poly-L-lysine hydrochloride, poly-L-ornithine hydrobromide, and fibronectin at a concentration of 50, 500, and 5000 μg/ml, was added to 96-well plate. 100 μL of HepG2 suspension (4×10^5 cells/mL) was added to each well. After 3-hour incubation at 37° C., non-adherent cells were removed by washing each well with PBS three times, and the attached cells were counted with a Neubauer counting chamber (Digital Bio). For Jurkat cells, 100 μL of cell suspension was added to each well at a density of 1×10^6 cells/ml. After 5-hour incubation at 37° C., non-adhered cells were removed by washing each well with PBS twice, and the attached cells were counted with a Neubauer counting chamber (Digital Bio). To calculate adhesion rates, firstly seeded cell numbers were assigned a value of 100%. As control tests, the same tests were conducted using wells supplied with only 1 μL of DMSO. Each assay was conducted in triplicate, and the means and standard derivations were calculated.
The comparison between adhesamine and its derivatives regarding cell adhesion promotion activity was conducted using Jurkat cells by way of reagent addition assay. 1 μL each of DMSO solutions of the compounds having concentrations of 60, 600, and 6000 μM were added to 96-well plates. The wells were supplied with 100 μL each of Jurkat cell suspensions (1×10^6 cells/mL). After 5-hour incubation at 37° C., non-adhered cells were removed by washing each well with PBS twice, and the attached cells were counted with a Neubauer counting chamber (Digital Bio). To calculate adhesion rates, firstly seeded cell numbers were assigned a value of 100%. As control tests, the same tests were conducted using well plates supplied with only 1 μL of DMSO. Each assay was conducted in triplicate, and the means and standard derivations were calculated.
However, since HepG2 cells have an intrinsic propensity to adhere to plastic tissue-culture plates, a test was conducted to determine whether the same effect was also obtained in the Jurkat cell line and human T-lymphocytes that are floating cells. Remarkably, 30% and 60% of the Jurkat cells attached to a culture plate in the presence of 6 and 60 μM of adhesamine, respectively (FIG. 1D). Removal of adhesamine by washing the plate twice with PBS detached the cells. 93% of Jurkat cells were released from the surface of a culture plate 24 hour after washing (FIG. 2). […] Simply adding adhesamine to the medium promoted adhesion of Jurkat cells onto culture plates, but not to each other.

Jurkat cells [3] = experiment: Cytoskeletal disruption, cell adhesion; format: cell-based, human; settings: for effect on adhesamine-mediated cell adhesion: adhesamine 6 μM, cytochalasin B 0-100 μM or nocodazole 0-0.5 μM; for effect on fibronectin-mediated cell adhesion: fibronectin-coated plate; for effect on cell attachment induced by poly-L-lysine: poly-L-lysine-coated plate
Experimental: Jurkat cells were adhered to plastic plates by adding adhesamine thereto in the presence of nocodazole (a tubulin inhibitor) or cytochalasin B (an actin inhibitor). Both nocodazole and cytochalasin inhibited adhesamine-induced cell adhesion, as observed in the cells adhered to a fibronectin-coated plate. […] The concentration of adhesamine was 6 μM. The fibronectin- or poly-L-lysine-coated plates were prepared by pretreating wells of 96-well plates with fibronectin or poly-L-lysine (1 ng/well).
Jurkat cells (5×10^4) were cultured in 100 μL of RPMI, and incubated with cytochalasin B (0-100 μM) or nocodazole (0-0.5 μM) at 37° C. The treated cells were then assayed for their responses to adhesamine (6 μM). Their responses to fibronectin- or poly-L-lysine-coated plates were also evaluated. The coated plates were prepared by pretreating wells of 96-well plates with fibronectin or poly-L-lysine (1 ng/well).

HepG2 cells [4] = experiment: Enzymatic treatment of cells, cell adhesion, HepG2; format: cell-based; settings: heparinases 0.02 units/mL, chondroitinase ABC 0.1 units/mL
Experimental: as §1
The effects of these GAG-degrading enzymes on the intact or adhesamine-enhanced attachment of HepG2 cells were examined. […] As observed in Jurkat cells, adhesamine-induced cell adhesion was canceled by heparan sulfate-degrading enzymes, but not by chondroitinase ABC (FIG. 9B).

Jurkat cells [5] = experiment: Enzymatic treatment of cells, cell adhesion, Jurkat; format: cell-based, human; settings: heparinases 0.02 units/mL, chondroitinase ABC 0.1 units/mL
Experimental: as §1
Jurkat cells (5×10^4) were cultured in 100 μL of RPMI and treated with a combination of heparinase, heparitinase I, and heparitinase II (0.02 units/mL) or chondroitinase ABC (0.1 units/mL) for 30 min at room temperature. The ability of the treated cells to respond to adhesamine was evaluated by counting the cells that were attached to plastic wells of a 96-well plate in the presence of adhesamine (6 μM).

[6] = test system: extracellular signal-regulated kinase (ERK); experiment: Western blotting, ERK activation; format: cell-based, human; settings: Jurkat, excess amounts of heparin
Experimental: (§2) Jurkat cells were treated with adhesamine (6 μM) in a serum-poor culture medium (0.1% FBS) for the indicated periods of time. The treated cell lysates were Western blotted with antibodies against FAK phospho-tyrosine^397 (pFAK), FAK, ERK1/2 phospho-threonine^202/tyrosine^204 (pERK) or ERK. In (B), Jurkat cells were incubated for 5 hours with varied concentrations of adhesamine or poly-L-lysine. The cell lysates were Western blotted with antibodies against FAK phospho-tyrosine^397 or FAK. […] The concentration of adhesamine (1) was 6 μM.
Jurkat cells were maintained in an RPMI medium containing 10% FBS. 5-6 million Jurkat cells were dispensed to a well of a 6-well plate in a final volume of 2 mL, and then incubated at 37° C. for 0-5 hours in the presence of adhesamine or poly-L-lysine. Non-adherent cells were removed and pelleted, and the remaining adherent cells were lysed in a 125 mM Tris-HCl buffer (pH 6.8) containing 4% SDS, 10% glycerol, 0.006% bromophenol blue, and 1.8% β-mercaptoethanol. The adherent cell homogenate was combined with pelleted nonadherent cells from the same well, and the combined sample was boiled for 5 minutes. The samples were separated by SDS-PAGE and electroblotted onto a nitrocellulose membrane. The membranes were blocked in 1% BSA and incubated with primary antibody, and then with horseradish peroxidase-conjugated secondary antibody. […]

[7] = test system: adhesamine (6 μM)-induced cell attachment of Jurkat cells; experiment: Squelching assay; format: cell-based, human; settings: for IC50: adhesamine 6 μM, Jurkat cells
Experimental: Adhesamine (1: 0.6 nmol) and each glycosaminoglycan (GAG) (heparin, heparan sulfate, chondroitin sulfate, keratan sulfate, hyaluronic acid, and heparin oligosaccharides) ranging from 0.006 to 12 nmol were stirred in 10 μL of 50 mM phosphate buffer (pH 6.0) containing 100 mM NaCl and 1% DMSO with a vortex mixer at room temperature for 30 min. Thereafter, these mixtures were transferred to 96-well plates, and 90 μL of Jurkat cell suspension (1×10^5 cells/mL) was added to each well. After 5-hour incubation at 37° C., non-adherent cells were removed by washing each well with PBS twice, and the attached cells were counted with a Neubauer counting chamber (Digital Bio). To calculate the inhibition rates, the number of attached cells in the wells supplied only with 1% DMSO or GAG of each concentration was subtracted from the number of cells in which the cell adhesions were observed after addition of the samples. The inhibition rate is expressed as follows.
wherein AC+(−)GAGs, +(−)adhesamine expresses the number of adhered cells in the presence (absence) of GAGs and adhesamine.
IC50 values are defined as the concentrations of GAGs required for 50% inhibition of the adhesamine (6 μM)-induced cell attachment. The results of the squelching assays were plotted as percentage of inhibition vs. log (GAG), and IC50 values were determined from curve fits of multiple independent experiments.

[8] = test system: focal adhesion kinase (FAK); experiment: Western blotting, FAK activation; format: cell-based, human; settings: Jurkat, adhesamine 6 μM, excess heparin or RGD peptide (100 μg/mL)
Experimental: as §2
Jurkat cells were maintained in an RPMI medium containing 10% FBS. 5-6 million Jurkat cells were dispensed to a well of a 6-well plate in a final volume of 2 mL, and then incubated at 37° C. for 0-5 hours in the presence of adhesamine or poly-L-lysine. Non-adherent cells were removed and pelleted, and the remaining adherent cells were lysed in a 125 mM Tris-HCl buffer (pH 6.8) containing 4% SDS, 10% glycerol, 0.006% bromophenol blue, and 1.8% β-mercaptoethanol. The adherent cell homogenate was combined with pelleted nonadherent cells from the same well, and the combined sample was boiled for 5 minutes. The samples were separated by SDS-PAGE and electroblotted onto a nitrocellulose membrane. The membranes were blocked in 1% BSA and incubated with primary antibody, and then with horseradish peroxidase-conjugated secondary antibody. The blots were developed using the enhanced chemiluminescence technique.

Jurkat cells [9] = experiment: Microinjection of Alexa Fluor 594; format: cell-based, human; settings: 5 μg/mL reagent
Experimental: The concentration of the reagents used was 5 μg/mL.
The solutions of adhesamine (1), Type I collagen, poly-L-lysine hydrochloride, and fibronectin were prepared by diluting with PBS containing 1% (v/v) DMSO. 10 μL of each solution (1 mg/mL) was added to glass bottom culture dishes (35 mm uncoated dish). 2 mL of cell suspension in a culture medium was added to each well at a density of 2×10^5 cells/mL. After 14-hour incubation at 37° C., Alexa Fluor 594 (Molecular Probes, USA) at a concentration of 5 mg/mL was injected into Jurkat cells by using a CI-2000 automated cell injection system (Fujitsu, Japan). Success rates of the microinjection were evaluated by direct observation of the fluorescent cells through a fluorescent-microscopic window of the injection system. The data shown are means±SD for a minimum of three experiments. 20 cells were injected in each experiment.

[10] = read-out: IC50 (GAGs, 50% inhibition of adhesamine-induced cell attachment)

Compound: CSc1nc(Cl)c(C=NNS(=O)(=O)c2cccc3c(N(C)C)cccc23)c(N2CC[N+]3(CC2)CC[N+]2(CCN(c4nc(SC)nc(Cl)c4C=NNS(=O)(=O)c4cccc5c(N(C)C)cccc45)CC2)CC3)n1 [Compound 4]
localization of the fluorescent compound (HepG2 cells [1]): on the cell surface
localization of the fluorescent probe (HepG2 cells [1]; HepG2 cells treated with chondroitinase): no impact on the cell-surface localization
localization of the fluorescent probe (HepG2 cells [1]; HepG2 cells treated with heparan sulfate-degrading enzymes): diffused from the cell surface
cell-adhesion promoting activity of adhesamine derivatives (Jurkat cells [2]): maintained the cell-adhesion promoting activity

Compound: CSc1nc(Cl)c(CO)c(N2CC[N+]3(CC2)CC[N+]2(CCN(c4nc(SC)nc(Cl)c4CO)CC2)CC3)n1 [Compound 3]
cell-adhesion promoting activity of adhesamine derivatives (Jurkat cells [2]): no impact on activity

Compound: C=C1[C@@H](C)[C@H]2[C@H](Cc3ccccc3)NC(=O)[C@]23OC(=O)/C=C/[C@H](O)CCC[C@@H](C)C/C=C/[C@H]3[C@@H]1O [cytochalasin B]
effect on adhesamine-mediated cell adhesion (Jurkat cells [3]): inhibited
effect on fibronectin-mediated cell adhesion (Jurkat cells [3]): impaired
effect on cell attachment induced by poly-L-lysine (Jurkat cells [3]): no detectable effects; also recorded: hardly inhibited

Compound: O=[N+]([O-])c1c(Cl)ncnc1N1CC[N+]2(CC1)CC[N+]1(CCN(c3ncnc(Cl)c3[N+](=O)[O-])CC1)CC2 [Compound 6]
Jurkat cell adhesion rate (%) in 6 μM of Adhesamine (Jurkat cells [2]): 22 ± 3.2%

Compound: chondroitinase ABC
inhibition of intact attachment of HepG2 cells (HepG2 cells [4]): 7%
effect on adhesamine-induced cell attachment (Jurkat cells [5]): no detectable effects

Compound: CN(C)c1cccc2c(S(=O)(=O)N3CC[N+]4(CC3)CC[N+]3(CCN(S(=O)(=O)c5cccc6c(N(C)C)cccc56)CC3)CC4)cccc12 [Compound 5]
localization of the fluorescent compound (HepG2 cells [1]): no clear localization
cell-adhesion promoting activity of adhesamine derivatives (Jurkat cells [2]): little effect on cell adhesion

IC50 [7, 10]: 0.27 µM
IC50 ([7]; read-out: IC50 (heparin oligosaccharides, 50% inhibition of adhesamine-induced cell attachment)): 0.27 ± 0.05 µM
Compound: Heparin [reference compound]
effect on adhesamine-induced ERK activation [6]: blocked
effect on adhesamine-induced phosphorylation of FAK [8]: reduced

Compound: C1C[N+]2(CCN1)CC[N+]1(CCNCC1)CC2.[Br-].[Br-] [Compound 2, 3,12-diaza-6,9-diazoniadispiro-(5,2,5,2)-hexadecane dibromide, reference compound]
cell-adhesion promoting activity of adhesamine derivatives (Jurkat cells [2]): completely eliminated the activity

Compound: COC(=O)Nc1nc2ccc(C(=O)c3cccs3)cc2[nH]1 [nocodazole]
effect on adhesamine-mediated cell adhesion (Jurkat cells [3]): inhibited
effect on fibronectin-mediated cell adhesion (Jurkat cells [3]): impaired
effect on cell attachment induced by poly-L-lysine (Jurkat cells [3]): no detectable effects; also recorded: hardly inhibited

IC50 [7, 10]: > 120 µM
Compound: Hyaluronic acid
ability to squelch the activity of adhesamine ([7]; GAG added to the medium together with adhesamine): no detectable effect

Compound: fibronectin: fibronectin from bovine plasma, plate-coating reagent
microinjection success rates (Jurkat cells [9]): up to 30%

Compound: CSc1nc(Cl)c(C=O)c(N2CC[N+]3(CC2)CC[N+]2(CCN(c4ncnc(N5CC[N+]6(CC5)CC[N+]5(CCN(c7nc(SC)nc(Cl)c7C=O)CC5)CC6)c4[N+](=O)[O-])CC2)CC3)n1.[Cl-].[Cl-].[Cl-].[Cl-] [Compound 8]
Jurkat cell adhesion rate (%) in 6 μM of Adhesamine (Jurkat cells [2]): 28 ± 4.1%

IC50 [7, 10]: 1.03 µM
Compound: Keratan sulfate

Compound: Clc1nc(Cl)nc(N2CC[N+]3(CC2)CC[N+]2(CCN(c4nc(Cl)nc(Cl)n4)CC2)CC3)n1 [Compound 9]
Jurkat cell adhesion rate (%) in 6 μM of Adhesamine (Jurkat cells [2]): 35 ± 5.2%

Compound: O=[N+]([O-])c1c(N2CC[N+]3(CC2)CC[N+]2(CCNCC2)CC3)ncnc1N1CC[N+]2(CC1)CC[N+]1(CCNCC1)CC2.[Cl-].[Cl-].[Cl-].[Cl-] [Compound 7]
Jurkat cell adhesion rate (%) in 6 μM of Adhesamine (Jurkat cells [2]): 21 ± 1.3%

IC50 [7, 10]: 0.79 µM
Compound: Heparan sulfate
